Patent EP2951180B1, “2,6,7,8 SUBSTITUTED PURINES AS HDM2 INHIBITORS” (Merck Sharp & Dohme Corp., priority 2013, dated 2014)

biological target: T1, HDM2 (Homo sapiens, UniProt Q00987); assay: HDM2 FRET assay (inhibition of binding of FITC labeled p53-pocket peptide to HDM2); conditions: 0.5 nM HDM2 (residues 17 to 125), 3nM peptide, two hour incubation at room temperature; read-out: FRET IC50
T1 construct: Thioredoxin (N); made in house; host or cells: E. coli strain BL21(DE3)Rosetta
Procedure, shortened: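 Displacement of FITC-p53 peptide (3 nM) from His-tagged HDM2 (0.5 nM) is measured by Tb-to-fluorescein FRET in PBS, 0.01% BSA, 0.01% Tween-20. IC50 values derive from 10-point curves.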

T1 sequence (Q00987 17-125): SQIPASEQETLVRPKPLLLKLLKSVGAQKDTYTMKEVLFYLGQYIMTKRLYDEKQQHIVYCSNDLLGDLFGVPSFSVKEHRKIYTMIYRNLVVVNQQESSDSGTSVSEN

| SMILES | IC50 [nM] |
| --- | --- |
| Cc1noc([C@@H]2COCCN2c2nc3nc(-c4n[nH]c(=O)o4)nc(-c4cccc(Cl)c4)c3n2C[C@H]2CC[C@H](C)CC2)n1 [Example 16.121, 5-{6-(3-chlorophenyl)-7-[(trans-4-methylcyclohexyl)methyl]-8-[(3S)-3-(3-methyl-1,2,4-oxadiazol-5-yl)morpholin-4-yl]-7H-purin-2-yl}-1,3,4-oxadiazol-2(3H)-one] | 9.18 |
| C[C@@H]1OCCN(c2nc3nc(-c4noc(=O)[nH]4)nc(-c4cccc(Cl)c4)c3n2C[C@H]2CC[C@H](C)CC2)[C@@H]1c1ccccc1 [Example 16.126, 3-{6-(3-chlorophenyl)-7-[(trans-4-methylcyclohexyl)methyl]-8-[(2S,3R)-2-methyl-3-phenylmorpholin-4-yl]-7H-purin-2-yl}-1,2,4-oxadiazol-5(4H)-one] | 85.6 |
| C[C@H]1OCCN(c2nc3nc(-c4noc(=O)[nH]4)nc(-c4cccc(Cl)c4)c3n2C[C@H]2CC[C@H](C)CC2)[C@@H]1c1ccccc1 [Example 16.127, 3-{6-(3-chlorophenyl)-7-[(trans-4-methylcyclohexyl)methyl]-8-[(2R,3R)-2-methyl-3-phenylmorpholin-4-yl]-7H-purin-2-yl}-1,2,4-oxadiazol-5(4H)-one] | 1.06 |
| C[C@@H]1OCCN(c2nc3nc(-c4noc(=O)[nH]4)nc(-c4cncc(Cl)c4)c3n2C[C@H]2CC[C@H](C)CC2)[C@@H]1c1ccccc1 [Example 16.129, 3-{6-(5-chloropyridin-3-yl)-7-[(trans-4-methylcyclohexyl)methyl]-8-[(2S,3R)-2-methyl-3-phenylmorpholin-4-yl]-7H-purin-2-yl}-1,2,4-oxadiazol-5(4H)-one] | 21.9 |
| C[C@@H]1OCCN(c2nc3nc(-c4n[nH]c(=O)o4)nc(-c4cncc(Cl)c4)c3n2C[C@H]2CC[C@H](C)CC2)[C@@H]1c1ccccc1 [Example 16.130, 5-{6-(5-chloropyridin-3-yl)-7-[(trans-4-methylcyclohexyl)methyl]-8-[(2S,3R)-2-methyl-3-phenylmorpholin-4-yl]-7H-purin-2-yl}-1,3,4-oxadiazol-2(3H)-one] | 28.9 |
| C[C@@H]1OCCN(c2nc3nc(-c4n[nH]c(=O)o4)nc(-c4cccc(Cl)c4)c3n2C[C@H]2CC[C@H](C)CC2)[C@@H]1c1ccccc1 [Example 16.132, 5-{6-(3-chlorophenyl)-7-[(trans-4-methylcyclohexyl)methyl]-8-[(2S,3R)-2-methyl-3-phenylmorpholin-4-yl]-7H-purin-2-yl} - 1,3,4-oxadiazol-2(3H)-one] | 89.5 |
| C[C@H]1OCCN(c2nc3nc(-c4n[nH]c(=O)o4)nc(-c4cncc(Cl)c4)c3n2C[C@H]2CC[C@H](C)CC2)[C@@H]1c1ccccc1 [Example 16.133, 5-{6-(5-chloropyridin-3-yl)-7-[(trans-4-methylcyclohexyl)methyl]-8-[(2R,3R)-2-methyl-3-phenylmorpholin-4-yl]-7H -purin-2-yl}-1,3,4-oxadiazol-2(3H)-one] | 0.569 |
| C[C@H]1OCCN(c2nc3nc(-c4noc(=O)[nH]4)nc(-c4cncc(Cl)c4)c3n2C[C@H]2CC[C@H](C)CC2)[C@@H]1c1ccccc1 [Example 16.135, 3-{6-(5-chloropyridin-3-yl)-7-[(trans-4-methylcyclohexyl)methyl]-8-[(2R,3R)-2-methyl-3-phenylmorpholin-4-yl]-7H-purin-2-yl}-1,2,4-oxadiazol-5(4H)-one] | 0.504 |
| C[C@@H]1[C@@H](C)OCCN1c1nc2nc(-c3noc(=O)[nH]3)nc(-c3cncc(Cl)c3)c2n1C[C@H]1CC[C@H](C)CC1 [Example 16.136, 3-{6-(5-chloropyridin-3-yl)-8-[(2R,3R)-2,3-dimethylmorpholin-4-yl]-7-[(trans-4-methylcyclohexyl)methyl]-7H-purin-2-yl}-1,2,4-oxadiazol-5(4H)-one] | 7.19 |
| C[C@H]1CC[C@H](Cn2c(N3CCOC[C@H]3CF)nc3nc(-c4noc(=O)[nH]4)nc(-c4cccc(Cl)c4)c32)CC1 [Example 16.137, 3-{6-(3-chlorophenyl)-8-[(3S)-3-(fluoromethyl)morpholin-4-yl]-7-[(trans-4-methylcyclohexyl)methyl]-7H-purin-2-yl}-1,2,4-oxadiazol-5(4H)-one] | 11.9 |
| Cc1nnc([C@@H]2COCCN2c2nc3nc(-c4noc(=O)[nH]4)nc(-c4cccc(Cl)c4)c3n2C[C@H]2CC[C@H](C)CC2)o1 [Example 16.138, 3-{6-(3-chlorophenyl)-7-[(trans-4-methylcyclohexyl)methyl]-8-[(3S)-3-(5-methyl-1,3,4-oxadiazol-2-yl)morpholin-4-yl]-7H-purin-2-yl}-1,2,4-oxadiazol-5(4H)-one] | 79.1 |
| C[C@H]1CC[C@H](Cn2c(N3CCOC[C@H]3CF)nc3nc(-c4n[nH]c(=O)o4)nc(-c4cncc(Cl)c4)c32)CC1 [Example 16.139, 5-{6-(5-chloropyridin-3-yl)-8-[(3S)-3-(fluoromethyl)morpholin-4-yl]-7-[(trans-4-methylcyclohexyl)methyl]-7H-purin-2-yl}-1,3,4-oxadiazol-2(3H)-one] | 37.1 |
| C[C@@H]1[C@@H](C)OCCN1c1nc2nc(-c3n[nH]c(=O)o3)nc(-c3cncc(Cl)c3)c2n1C[C@H]1CC[C@H](C)CC1 [Example 16.140, 5-{6-(5-chloropyridin-3-yl)-8-[(2R,3R)-2,3-dimethylmorpholin-4-yl]-7-[(trans-4-methylcyclohexyl)methyl]-7H-purin-2-yl}-1,3,4-oxadiazol-2(3H)-one] | 9.45 |
| C[C@H]1OCCN(c2nc3nc(-c4n[nH]c(=O)o4)nc(-c4cccc(Cl)c4)c3n2C[C@H]2CC[C@H](C)CC2)[C@@H]1c1ccccc1 [Example 16.142, 5-{6-(3-chlorophenyl)-7-[(trans-4-methylcyclohexyl)methyl]-8-[(2R,3R)-2-methyl-3-phenylmorpholin-4-yl]-7H-purin-2-yl} - 1,3,4-oxadiazol-2(3H)-one] | 1.5 |
| C[C@H]1CC[C@H](Cn2c(N3CCOCC34CCC4)nc3nc(-c4noc(=O)[nH]4)nc(-c4cncc(Cl)c4)c32)CC1 [Example 16.144, 3-[6-(5-chloropyridin-3-yl)-7-[(trans-4-methylcyclohexyl)methyl]-8-(8-oxa-5-azaspiro[3.5]non-5-yl)-7H-purin-2-yl]-1,2,4-oxadiazol-5(4H)-one] | 19.1 |
| C[C@@H]1COC[C@@H](C)N1c1nc2nc(-c3n[nH]c(=O)o3)nc(-c3cccc(Cl)c3)c2n1C[C@H]1CC[C@H](C)CC1 [Example 16.147, 5-{6-(3-chlorophenyl)-8-[(3R,5R)-3,5-dimethylmorpholin-4-yl]-7-[(trans-4-methylcyclohexyl)methyl]-7H-purin-2-yl}-1,3,4-oxadiazol-2(3H)-one] | 5.52 |
| CN(C)C(=O)[C@@H]1CCCN1c1nc2nc(-c3noc(=O)[nH]3)nc(-c3cccc(Cl)c3)c2n1C[C@H]1CC[C@H](C)CC1 [Example 16.148, 1-[6-(3-chlorophenyl)-7-[(trans-4-methylcyclohexyl)methyl]-2-(5-oxo-4,5-dihydro-1,2,4-oxadiazol-3-yl)-7H-purin-8-yl]-N,N-dimethyl-L-prolinamide] | 15.1 |
| COC[C@@H]1CC[C@@H](COC)N1c1nc2nc(-c3noc(=O)[nH]3)nc(-c3cccc(Cl)c3)c2n1C[C@H]1CC[C@H](C)CC1 [Example 16.149, 3-{8-[(2S,5S)-2,5-bis(methoxymethyl)pyrrolidin-1-yl]-6-(3-chlorophenyl)-7-[(trans-4-methylcyclohexyl)methyl]-7H-purin-2-yl}-1,2,4-oxadiazol-5(4H)-one] | 3.77 |
| CC[C@@H]1[C@@H](C)OCCN1c1nc2nc(-c3noc(=O)[nH]3)nc(-c3cncc(Cl)c3)c2n1C[C@H]1CC[C@H](C)CC1 [Example 16.152, 3-{6-(5-chloropyridin-3-yl)-8-[(2R,3R)-3-ethyl-2-methylmorpholin-4-yl]-7-[(trans-4-methylcyclohexyl)methyl]-7H-purin-2-yl}-1,2,4-oxadiazol-5(4H)-one] | 5.68 |
| CC[C@@H]1[C@@H](C)OCCN1c1nc2nc(-c3n[nH]c(=O)o3)nc(-c3cncc(Cl)c3)c2n1C[C@H]1CC[C@H](C)CC1 [Example 16.153, 5-{6-(5-chloropyridin-3-yl)-8-[(2R,3R)-3-ethyl-2-methylmorpholin-4-yl]-7-[(trans-4-methylcyclohexyl)methyl]-7H-purin-2-yl}-1,3,4-oxadiazol-2(3H)-one] | 10 |
| COc1ncc(Cl)cc1-c1nc(-c2noc(=O)[nH]2)nc2nc(N3CCOC[C@H]3c3ccccc3)n(C[C@H]3CC[C@H](C)CC3)c12 [Example 16.156, 3-{6-(5-chloro-2-methoxypyridin-3-yl)-7-[(trans-4-methylcyclohexyl)methyl]-8-[(3R)-3-phenylmorpholin-4-yl]-7H-purin-2-yl}-1,2,4-oxadiazol-5(4H)-one] | 0.851 |
| COc1ncc(Cl)cc1-c1nc(-c2n[nH]c(=O)o2)nc2nc(N3CCOC[C@H]3c3ccccc3)n(C[C@H]3CC[C@H](C)CC3)c12 [Example 16.157, 5-{6-(5-chloro-2-methoxypyridin-3-yl)-7-[(trans-4-methylcyclohexyl)methyl]-8-[(3R)-3-phenylmorpholin-4-yl]-7H-purin-2-yl} - 1,3,4-oxadiazol-2(3H)-one] | 0.882 |
| Cc1ncc(Cl)cc1-c1nc(-c2noc(=O)[nH]2)nc2nc(N3CCOC[C@H]3c3ccccc3)n(C[C@H]3CC[C@H](C)CC3)c12 [Example 16.158, 3-{6-(5-chloro-2-methylpyridin-3-yl)-7-[(trans-4-methylcyclohexyl)methyl]-8-[(3R)-3-phenylmorpholin-4-yl]-7H-purin-2-yl}-1,2,4-oxadiazol-5(4H)-one] | 0.601 |
| Cc1ncc(Cl)cc1-c1nc(-c2n[nH]c(=O)o2)nc2nc(N3CCOC[C@H]3c3ccccc3)n(C[C@H]3CC[C@H](C)CC3)c12 [Example 16.159, 5-{6-(5-chloro-2-methylpyridin-3-yl)-7-[(trans-4-methylcyclohexyl)methyl]-8-[(3R)-3-phenylmorpholin-4-yl]-7H -purin-2-yl}-1,3,4-oxadiazol-2(3H)-one] | 0.704 |
